Experimental data reported in paper PMC9170154, “Identification of an arthropod molecular target for plant-derived natural repellents” (Proceedings of the National Academy of Sciences of the …, 2022).
Numbering of substitutions follows the chain as printed.

What was measured:
Assay in all cases: whole-cell patch clamp, HEK […]
[1] = test system: T1, sTRP1 (scorpion TRP1); type: cell-based, Olivierus martensii; conditions: current evoked by 2 mM citronellal after sensitization
T1 construct: full-length cDNA (791 residues) cloned by RACE PCR, in pIRES2-EGFP vector, transiently expressed in HEK 293T cells

[2] = test system: T1, sTRP1 (scorpion TRP1); type: cell-based, Olivierus martensii; conditions: agonist, after full sensitization
[3] = biological target: T2, dTRPγ (Drosophila melanogaster, UniProt Q9VJJ7); type: cell-based; conditions: agonist
T2 construct: gene Trpgamma
T2 sequence (Q9VJJ7 1-1128): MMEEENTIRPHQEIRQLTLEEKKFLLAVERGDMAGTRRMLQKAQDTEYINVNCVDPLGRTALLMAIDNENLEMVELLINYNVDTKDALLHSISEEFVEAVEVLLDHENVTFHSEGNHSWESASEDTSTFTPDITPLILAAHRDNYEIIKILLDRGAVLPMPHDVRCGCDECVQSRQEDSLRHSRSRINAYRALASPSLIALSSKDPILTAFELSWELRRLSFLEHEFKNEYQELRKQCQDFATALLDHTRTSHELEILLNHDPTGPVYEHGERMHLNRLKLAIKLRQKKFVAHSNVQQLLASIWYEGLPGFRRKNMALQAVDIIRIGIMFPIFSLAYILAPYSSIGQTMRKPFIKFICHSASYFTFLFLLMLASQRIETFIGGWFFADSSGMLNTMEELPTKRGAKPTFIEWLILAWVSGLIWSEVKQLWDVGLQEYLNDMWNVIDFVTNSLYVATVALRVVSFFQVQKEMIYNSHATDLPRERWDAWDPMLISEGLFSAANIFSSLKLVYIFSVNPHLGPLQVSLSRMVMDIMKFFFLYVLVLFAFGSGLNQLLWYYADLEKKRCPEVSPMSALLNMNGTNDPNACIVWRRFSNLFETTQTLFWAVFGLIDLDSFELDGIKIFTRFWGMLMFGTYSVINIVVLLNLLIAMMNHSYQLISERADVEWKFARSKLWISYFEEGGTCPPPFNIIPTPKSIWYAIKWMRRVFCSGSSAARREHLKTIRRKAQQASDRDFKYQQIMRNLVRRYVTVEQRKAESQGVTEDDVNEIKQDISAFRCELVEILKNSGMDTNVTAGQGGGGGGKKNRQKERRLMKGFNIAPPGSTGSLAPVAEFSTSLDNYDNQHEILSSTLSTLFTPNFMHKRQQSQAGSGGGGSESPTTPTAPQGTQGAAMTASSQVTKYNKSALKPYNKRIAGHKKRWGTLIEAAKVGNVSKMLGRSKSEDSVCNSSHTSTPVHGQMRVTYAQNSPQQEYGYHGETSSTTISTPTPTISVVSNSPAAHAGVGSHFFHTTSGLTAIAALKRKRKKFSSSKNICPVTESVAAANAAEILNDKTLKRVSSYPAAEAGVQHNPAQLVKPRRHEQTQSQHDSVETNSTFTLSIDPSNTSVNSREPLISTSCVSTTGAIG

[4] = biological target: T2, dTRPγ; type: cell-based; conditions: dTRPγ mutant
[5] = biological target: T2, dTRPγ; type: cell-based
[6] = biological target: T3, dTRPγ (Drosophila melanogaster, UniProt Q9VJJ7, V515A); type: cell-based; conditions: dTRPγ mutant
T3 construct: gene Trpgamma
T3 sequence (Q9VJJ7 1-1128 V515A): T2 sequence (Q9VJJ7 1-1128) with V515A

## NCCOB(c1ccccc1)c1ccccc1 [2-aminoethoxydiphenyl borate]
[1]; inhibitor, nH 1.3
  IC50: 48.3 ± 5.58 µM

## CC12CCC(CC1=O)C2(C)C (centres unmarked) [camphor]
[2]; nH 2.4
  EC50: 3300 ± 200 µM
[3]
  whole-cell patch clamp, HEK 293T: We here show that camphor activates both sTRP1 and dTRPγ (SI Appendix, Fig. S11)

## CC(C)=CCCC(C)CC=O (centres unmarked) [citronellal]
[2]; nH 3.3
  EC50: 560 ± 10 µM
[4]
  whole-cell patch clamp, HEK 293T: mutant V513L reduced the response to citronellal and citronellol
[5]
  EC50: 870 ± 50 µM

## CC(C)=CCCC(C)CCO (centres unmarked) [citronellol]
[2]; nH 3.6
  EC50: 300 ± 10 µM
[4]
  whole-cell patch clamp, HEK 293T: mutant V513L reduced the response to citronellal and citronellol
[6]
  whole-cell patch clamp, HEK 293T: the V515A substitution selectively impaired the sensitivity to citronellol and camphor
[5]
  EC50: 490 ± 20 µM

## Cl.Cl.Cl.Cl.Cl.Cl.N.N.N.N.N.N.N.N.N.N.N.N.N.N.[O-2].[O-2].[Ru+3].[Ru+3].[Ru+4] [ruthenium red]
[1]; channel blocker, nH 1.6
  IC50: 3.12 ± 0.29 µM
